Several values for one entry are separate records, joined by “and”; a condition that tells them apart may be missing. Equal values may be shown once. Read-outs that look alike come from different tables or passages of the source. Blank lines part the entries; values can stand above or below the molecule they belong to.
Tests used:
P-gp [1] = target: T1, P-gp (Homo sapiens, UniProt P08183); experiment: Vesicular transport assay, P-gp (N-methyl-quinidine substrate); settings: food additive 50 μM; N-methyl-quinidine 2 μM; n = 1
Method: (§1) Transport inhibition by 22 food additives was tested with Spodoptera frugiperda (Sf9) derived crude membrane vesicles expressing BCRP, MRP2, or P-gp produced in-house. […] Vesicles (50 μg total protein/well) were diluted in an assay buffer (40 mM MOPS–Tris pH 7.0, 60 mM KCl, and 6 mM MgCl2) with the substrate, and food additives (final concentration of 50 μM) in DMSO were added to the mixture. After preincubation, either the assay buffer or Mg-ATP solution (final concentration 4 mM) was added to the plate to start the reaction. The plate was incubated at 37 °C, and the reaction was stopped with an ice-cold washing mixture (40 mM MOPS-Tris pH 7.0 and 70 mM KCl). Samples were moved to a MultiScreenHTS-FB Plate Glass fiber 1.0 μm/0.65 μm Durapore filter plate (Millipore, USA), and the wells were washed five times with the ice-cold washing mixture. For BCRP and MRP2, the fluorescent substrate was eluted from the filters with 100 μL 0.1 M NaOH. For LY samples, an equal volume of 0.1 M HCl was added to neutralize the samples before fluorescence measurement. The amount of the substrate accumulated into the vesicles was measured by fluorescent detection using a Varioskan LUX microplate reader (Thermo Fisher Scientific, Finland) (Table ). The accumulation into the P-gp vesicles was measured with high-performance liquid chromatography (HPLC) (Agilent 110 series, Agilent Technologies, USA) after lysis and elution of the vesicle contents with 100 μL 3:1 methanol/water + 0.1% formic acid. The column used was a Poroshell 120 EC-C18 with a size of 4.6 × 100 mm and 2.7 μm particle size. Eluent A was 0.1% formic acid, and eluent B was acetonitrile. The flow rate of eluent was 1 mL/min, and the injection volume of samples was 10 μL. […] The retention time for NMQ was around 2.5 min.
(§2) For the efflux transporters, the relative transport was calculated as relativetransport(%ofcontrol)=transportinh,ATP−transportinh,noATP/transportDMSO,ATP−transportDMSO,noATP×100% where transportinh,ATP and transportinh,no ATP are the transport rates in the presence of food additives with or without ATP, respectively, and transportDMSO,ATP and transportDMSO,no ATP are the corresponding transport rates in the presence of the vehicle (DMSO) with or without ATP.
(§3) The half-maximal inhibitory concentrations (IC50) were calculated with GraphPad Prism version 9.0.2 (GraphPad Software, San Diego, CA) using nonlinear regression that fits the data to a four-parameter dose–response curve: relativetransport=minimum+maximum−minimum/1+([I]/IC50)^h where minimum and maximum describe the plateaus of minimal and maximal relative transport (%), [I] is the concentration of inhibitor, and h is the Hill slope, which describes the steepness of the slope.

Caco-2 cells = experiment: in vitro
Method: Caco-2 cells were cultured on 12-well Transwell polycarbonate membrane inserts with a 0.4 μm pore size (Corning Incorporated, Kennebunk, ME) at 37 °C and 5% CO2 for 21–24 days prior to the experiment as described in Hubatsch et al. The culture medium (DMEM, 10% FBS, 1% MEM nonessential amino acids, 100 U/mL penicillin–streptomycin) was changed every second day. Transepithelial electrical resistance (TEER) was measured before and after the permeability assay with a Millicell-ERS electrode (Millipore, Bedford, MA) attached to an epithelial volt ohm meter (EVOM, World Precision Instruments, Sarasota, FL). The permeability assay was performed according to a previously published protocol. […] Sulfasalazine is a substrate of BCRP and OATP2B1. , The DMSO concentration was 0.45–1.5%. Before the experiment, inserts were washed and preincubated in the transport buffer for 20 min shaking at 37 °C. Sulfasalazine and LY permeability was measured in the apical to basolateral direction at five time points (20, 40, 60, 90, and 120 min) and, additionally, in the basolateral to apical direction to calculate the efflux ratio. […] […] LY (250 μM) was added on the donor side of all inserts to measure the integrity of the cell monolayer. Before analysis, samples were centrifuged at 2755g for 30 min, and donor solution and mass balance samples were diluted 1:100. LY fluorescence was measured with a Varioskan LUX microplate reader (Thermo Fisher Scientific) at 430 nm excitation and 538 nm emission. Sulfasalazine was analyzed with ultra-performance liquid chromatography (UPLC) using a Syncronis C18 column (1.7 μm particle size, 50 × 2.1 mm + 0.2 μm Waters online filter) (Thermo Fisher Scientific) coupled with Waters Acquity UPLC interfaced with a PDA detector both controlled by the Waters Empower software version 3. The UPLC was operated in gradient mode at 354 nm. Solvents were 0.015 M phosphate buffer pH 2 (A), acetonitrile (B), 1:1 acetonitrile/methanol (strong needle wash), and 20% acetonitrile (weak needle wash). Column temperature was 30 °C, injection volume was 10 μL, retention time was 1.46 min, and flow rate was 0.5 mL/min. The gradient was 25% B → 70% B (0–3 min), 70% B → 25% B (3.00–3.01 min), and 25% B (3.01–4 min). The data were collected for the first 180 s of each UPLC run.
In the Caco-2 permeability assay, the apparent permeability (P app) of sulfasalazine was calculated using the following equation: Papp=(dQ/dt)(1/A×C0) where dQ/dt is the rate of permeation across the cells (nmol/min), A is the surface area of the filter (1.12 cm^2), and C 0 is the initial concentration in the donor chamber (μM). The efflux ratio of sulfasalazine was calculated by dividing the P app in the basolateral to the apical direction by the P app in the apical to basolateral direction. The TEER for each cell insert was calculated before and after the experiment by multiplying the mean resistance of three measurements by the surface area of the filter (1.12 cm^2). Mass balance was calculated by dividing the […]. All experiments were done in triplicate wells, and the IC50 and Caco-2 permeability assays were repeated three times.

BCRP [2] = target: T2, BCRP (Homo sapiens, UniProt Q9UNQ0); experiment: Vesicular transport assay, BCRP (Lucifer yellow substrate); format: biochemical; set-up: made in house; host or cells: Spodoptera frugiperda Sf9 cells, crude membrane vesicles; settings: for inhibition of BCRP substrate accumulation: n = 1
T2 sequence (Q9UNQ0 1-655): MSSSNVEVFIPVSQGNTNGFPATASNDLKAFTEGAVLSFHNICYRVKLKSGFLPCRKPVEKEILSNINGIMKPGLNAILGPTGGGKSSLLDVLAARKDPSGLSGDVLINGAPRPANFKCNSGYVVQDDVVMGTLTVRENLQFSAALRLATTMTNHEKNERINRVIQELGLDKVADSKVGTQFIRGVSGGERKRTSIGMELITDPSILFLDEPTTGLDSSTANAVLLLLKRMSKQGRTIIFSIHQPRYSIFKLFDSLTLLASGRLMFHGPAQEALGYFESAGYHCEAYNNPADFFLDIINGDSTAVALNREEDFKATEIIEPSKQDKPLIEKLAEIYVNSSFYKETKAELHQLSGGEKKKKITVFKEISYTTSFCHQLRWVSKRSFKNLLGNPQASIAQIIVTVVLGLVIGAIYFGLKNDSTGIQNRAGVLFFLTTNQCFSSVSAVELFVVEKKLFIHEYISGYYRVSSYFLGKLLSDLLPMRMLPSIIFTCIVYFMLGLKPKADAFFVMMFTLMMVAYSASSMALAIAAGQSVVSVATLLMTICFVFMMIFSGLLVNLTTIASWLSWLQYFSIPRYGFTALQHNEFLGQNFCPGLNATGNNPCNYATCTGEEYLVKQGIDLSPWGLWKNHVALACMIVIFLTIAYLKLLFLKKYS
Method: as §1, §2, §3

OATP2B1 [3] = target: T3, OATP2B1 (Homo sapiens, UniProt O94956); experiment: HEK293 uptake assay, OATP2B1 (5-carboxyfluorescein substrate); format: cell-based; settings: food additive 50 μM; 5-carboxyfluorescein 2 μM; HEK293 cells; n = 1
T3 construct: expressed in transfected cells; host or cells: HEK293 cells (ATCC) transduced with recombinant OATP2B1 baculovirus
T3 sequence (O94956 1-709): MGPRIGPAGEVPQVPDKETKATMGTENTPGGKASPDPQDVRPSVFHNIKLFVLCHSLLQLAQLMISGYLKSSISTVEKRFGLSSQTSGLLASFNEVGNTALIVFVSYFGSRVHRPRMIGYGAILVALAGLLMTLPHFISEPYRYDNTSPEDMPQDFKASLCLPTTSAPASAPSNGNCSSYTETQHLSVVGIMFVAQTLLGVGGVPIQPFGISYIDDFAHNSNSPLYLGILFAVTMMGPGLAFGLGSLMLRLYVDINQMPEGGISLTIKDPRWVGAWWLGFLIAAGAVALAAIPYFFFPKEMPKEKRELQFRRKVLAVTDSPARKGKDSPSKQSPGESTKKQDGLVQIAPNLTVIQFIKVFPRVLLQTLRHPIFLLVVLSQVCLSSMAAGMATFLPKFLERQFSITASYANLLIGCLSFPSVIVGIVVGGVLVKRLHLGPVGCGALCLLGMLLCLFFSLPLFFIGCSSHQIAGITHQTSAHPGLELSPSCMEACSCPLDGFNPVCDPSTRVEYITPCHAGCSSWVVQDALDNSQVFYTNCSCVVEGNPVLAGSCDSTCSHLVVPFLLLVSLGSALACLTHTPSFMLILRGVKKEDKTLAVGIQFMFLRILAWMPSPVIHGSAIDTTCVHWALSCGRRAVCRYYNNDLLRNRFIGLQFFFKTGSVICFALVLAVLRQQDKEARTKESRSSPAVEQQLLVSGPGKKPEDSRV
Method: The inhibition of OATP2B1 was studied using a HEK293 cell-based uptake assay. HEK293 cells were cultured in DMEM supplemented with 10% FBS at 37 °C and 5% CO2 and seeded at 22,500 cells/well on 96-well plates coated with 0.1 mg/mL poly-D-lysine. After 24 h, the medium was replaced with a transduction mix (DMEM with 10% FBS, 5 mM sodium butyrate, and recombinant OATP2B1 or enhanced yellow fluorescent protein [eYFP, negative control] baculoviruses). The baculoviruses were produced as previously described. The uptake assay was performed after approximately 48 h. […] Test solutions also contained the substrate. Cells were washed with warm transport buffer and preincubated at 37 °C. Preincubation solutions were replaced with test solutions and incubated at 37 °C with shaking at 250 rpm. Transport was terminated by aspirating the test solution and washing the wells with an ice-cold transport buffer (150 μL) three times. Wells were left to dry, and cells were lysed with 0.1 M NaOH. […] Total protein concentration was measured from six random wells with a Pierce Coomassie (Bradford) Assay kit (Thermo Fisher Scientific) to ensure a similar protein concentration in the OATP2B1 and eYFP wells.

OATP2B1 [4] = target: T3, OATP2B1; settings: cited from earlier work
BCRP [5] = target: T2, BCRP; settings: cited from earlier work
P-gp [6] = target: T1, P-gp; set-up: made in house; host or cells: Spodoptera frugiperda Sf9 cells, crude membrane vesicles; settings: ref Kulkarni et al.; cited from earlier work
[7] = food additive 50 μM, Lucifer yellow 50 μM

T1 sequence (P08183 whole entry): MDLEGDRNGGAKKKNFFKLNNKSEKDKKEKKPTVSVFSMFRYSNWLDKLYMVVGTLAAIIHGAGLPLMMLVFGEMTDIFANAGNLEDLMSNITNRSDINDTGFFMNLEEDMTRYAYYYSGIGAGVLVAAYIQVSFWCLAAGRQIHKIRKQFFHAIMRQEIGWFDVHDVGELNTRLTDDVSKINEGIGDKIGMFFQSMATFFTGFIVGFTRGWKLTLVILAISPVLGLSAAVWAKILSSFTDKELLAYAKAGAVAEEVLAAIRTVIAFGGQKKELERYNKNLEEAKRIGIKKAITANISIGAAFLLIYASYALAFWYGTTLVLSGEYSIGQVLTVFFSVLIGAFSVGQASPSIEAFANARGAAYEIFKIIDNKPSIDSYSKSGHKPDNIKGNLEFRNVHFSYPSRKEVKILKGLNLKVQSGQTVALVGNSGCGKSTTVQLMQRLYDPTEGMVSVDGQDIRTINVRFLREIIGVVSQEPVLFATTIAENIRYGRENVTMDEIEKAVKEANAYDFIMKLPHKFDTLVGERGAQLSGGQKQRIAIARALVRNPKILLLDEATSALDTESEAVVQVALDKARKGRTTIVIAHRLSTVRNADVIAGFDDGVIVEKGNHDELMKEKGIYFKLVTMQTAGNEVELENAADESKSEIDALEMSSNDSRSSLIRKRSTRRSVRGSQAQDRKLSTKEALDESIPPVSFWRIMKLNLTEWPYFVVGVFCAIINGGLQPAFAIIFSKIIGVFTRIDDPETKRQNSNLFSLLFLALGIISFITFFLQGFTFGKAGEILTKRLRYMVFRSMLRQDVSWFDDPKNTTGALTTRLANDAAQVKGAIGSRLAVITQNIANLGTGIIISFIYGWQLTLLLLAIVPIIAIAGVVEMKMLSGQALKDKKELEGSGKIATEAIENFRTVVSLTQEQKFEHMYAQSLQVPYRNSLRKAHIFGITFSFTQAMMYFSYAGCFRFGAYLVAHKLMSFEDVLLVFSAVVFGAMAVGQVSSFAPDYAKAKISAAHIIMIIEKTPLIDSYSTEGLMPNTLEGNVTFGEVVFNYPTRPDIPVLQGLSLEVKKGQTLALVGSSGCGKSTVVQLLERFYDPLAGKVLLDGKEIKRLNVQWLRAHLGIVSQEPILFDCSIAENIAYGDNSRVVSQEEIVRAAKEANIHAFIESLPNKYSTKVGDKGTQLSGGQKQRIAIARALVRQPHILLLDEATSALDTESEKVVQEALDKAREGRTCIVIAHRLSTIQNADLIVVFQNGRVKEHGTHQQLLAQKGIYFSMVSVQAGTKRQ

SMILES: CCCOC(=O)c1cc(O)c(O)c(O)c1 [propyl gallate]
- inhibition of P-gp substrate accumulation (P-gp [1]): None

SMILES: COc1ccc2c3c([nH]c2c1)[C@H](CC(C)C)N1C(=O)[C@H](CCC(=O)OC(C)(C)C)NC(=O)[C@@H]1C3 [Ko-143, reference compound]
- apical to basolateral P app of sulfasalazine with control inhibitor (Caco-2 cells; Ko-143 10 μM on apical and basolateral sides, sulfasalazine 500 μM): ~0.6 × 10^–6 cm/s

SMILES: CCCCCCCCCCCCOC(=O)c1cc(O)c(O)c(O)c1 [dodecyl gallate]
- IC50 (BCRP [2]; Lucifer yellow 50 μM, membrane vesicles, n = 3, read-out: IC50 (95% CI), BCRP): 22.5 µM
- inhibition at 50 μM (BCRP [2]; Sf9-derived crude membrane vesicles expressing BCRP, pH 7, probe Lucifer yellow 50 μM, food additive 50 μM, n = 1, read-out: inhibition of BCRP substrate accumulation): ≥ 50%

SMILES: O=C1O[C@H]([C@@H](O)CO)C(O)=C1O [ascorbic acid]
- inhibition of P-gp substrate accumulation (P-gp [1]): None

SMILES: OC[C@@H](O)[C@@H](O[C@H]1O[C@H](CO)[C@@H](O)[C@H](O)[C@H]1O)[C@H](O)[C@@H](O)CO [maltitol]
- inhibition of P-gp substrate accumulation (P-gp [1]): None

SMILES: COc1ccc(O)c(C(C)(C)C)c1 [butylated hydroxyanisole]
- inhibition of OATP2B1-mediated uptake (OATP2B1 [3]): ≤ 50%
- OATP2B1 inhibition (OATP2B1 [4]; ref Kulkarni et al.): significant inhibitor
- IC50 (OATP2B1 [4]; ref Kulkarni et al., read-out: IC50, OATP2B1): > 50 µM
- IC50 (BCRP [5]; read-out: IC50, BCRP, ref Kulkarni et al.): > 50 µM
- BCRP inhibition (BCRP [5]; ref Kulkarni et al.): significant inhibitor
- inhibition of P-gp substrate accumulation (P-gp [1]): ≤ 50%
- inhibition of BCRP substrate accumulation (BCRP [2]; [7]): ≤ 50%
- IC50 (P-gp [6]): > 50 µM
- P-gp inhibition (P-gp [6]): significant inhibitor

SMILES: O=S(=O)([O-])c1ccc(N=Nc2c(O)ccc3cc(S(=O)(=O)[O-])ccc23)cc1.[Na+].[Na+] [sunset yellow FCF]
- effect on sulfasalazine permeability (P app) (Caco-2 cells; Caco-2): None of the selected food additives showed any effect
- IC50 (OATP2B1 [4]; pH 5.5, previously characterized inhibitors, ref previous studies, read-out: IC50, OATP2B1, pH 5.5): 20.3 µM
- Ki (OATP2B1 [4]; previously characterized inhibitors, ref previous studies, read-out: K i, OATP2B1): 68.4 µM
- IC50 (BCRP [5]; read-out: IC50 (95% CI), BCRP, previously characterized inhibitors, ref previous studies): 10.6 µM and 14.1 µM

SMILES: CC1=C(/C=C/C(C)=C/C=C/C(C)=C/C=C/C=C(C)/C=C/C=C(\C)C=O)C(C)(C)CCC1 [beta-apo-8’-carotenal]
- inhibition of OATP2B1-mediated uptake (OATP2B1 [3]): did not inhibit these transporters as markedly as beta-carotene
- inhibition of P-gp substrate accumulation (P-gp [1]): did not inhibit these transporters as markedly as beta-carotene
- inhibition of BCRP substrate accumulation (BCRP [2]; [7]): did not inhibit these transporters as markedly as beta-carotene

SMILES: O=C([O-])C1=NN(c2ccc(S(=O)(=O)[O-])cc2)C(=O)C1N=Nc1ccc(S(=O)(=O)[O-])cc1.[Na+].[Na+].[Na+] (stereo not shown) [tartrazine]
- sulfasalazine P app fold change (Caco-2 cells; food additive 200 μM on both sides of the cell monolayer): ≤ 2

Second part, the molecule after the results:

- inhibition of P-gp substrate accumulation (P-gp [1]): None
SMILES: OC[C@@H](O)[C@H](O)[C@@H](O)CO [xylitol]

- inhibition of P-gp substrate accumulation (P-gp [1]): None
SMILES: OC[C@@H](O)[C@@H](O)[C@H](O)[C@@H](O)CO [sorbitol]

- inhibition of P-gp substrate accumulation (P-gp [1]): None
SMILES: OC[C@@H](O)[C@@H](O[C@@H]1O[C@H](CO)[C@H](O)[C@H](O)[C@H]1O)[C@H](O)[C@@H](O)CO [lactitol]

- inhibition of P-gp substrate accumulation (P-gp [1]): None
SMILES: OC[C@@H](O)[C@@H](O)[C@H](O)[C@H](O)CO [mannitol]

- inhibition of P-gp substrate accumulation (P-gp [1]): None
SMILES: OC[C@@H](O)[C@@H](O)CO [erythritol]

Source: PMC12406256, “Food Additives Inhibit Intestinal Drug Transporters but Have Limited Effect on In Vitro Drug Permeability” (Molecular Pharmaceutics, 2025)
